Experimental data reported in article PMC3156385 (Chemical research in toxicology, 2011).
Read-outs that look alike come from different tables or passages of the source.

Tests used:
P450 1A2 = target: T1, P450 1A2 (Homo sapiens, UniProt P05177); assay: Inhibition of P450 1A2-dependent EROD activity; assay type: biochemical
T1 sequence (P05177 1-516): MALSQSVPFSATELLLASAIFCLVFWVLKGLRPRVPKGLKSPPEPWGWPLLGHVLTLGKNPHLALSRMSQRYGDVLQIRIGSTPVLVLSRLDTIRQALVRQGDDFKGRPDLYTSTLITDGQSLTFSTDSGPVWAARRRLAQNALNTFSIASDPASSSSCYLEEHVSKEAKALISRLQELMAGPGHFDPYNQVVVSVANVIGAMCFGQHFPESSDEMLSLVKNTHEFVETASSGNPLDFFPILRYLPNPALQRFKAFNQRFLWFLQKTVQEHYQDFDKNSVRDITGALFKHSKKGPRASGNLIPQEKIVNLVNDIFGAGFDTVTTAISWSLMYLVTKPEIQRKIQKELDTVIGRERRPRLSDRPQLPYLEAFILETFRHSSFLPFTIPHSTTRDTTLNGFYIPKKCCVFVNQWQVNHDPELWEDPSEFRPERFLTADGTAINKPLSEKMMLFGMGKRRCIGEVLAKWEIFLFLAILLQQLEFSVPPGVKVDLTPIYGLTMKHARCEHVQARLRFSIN

P450 2A13 [1] = target: T2, P450 2A13 (Homo sapiens, UniProt Q16696); assay: Inhibition of P450 2A13-dependent coumarin 7-hydroxylation; assay type: biochemical
T2 sequence (Q16696 1-494): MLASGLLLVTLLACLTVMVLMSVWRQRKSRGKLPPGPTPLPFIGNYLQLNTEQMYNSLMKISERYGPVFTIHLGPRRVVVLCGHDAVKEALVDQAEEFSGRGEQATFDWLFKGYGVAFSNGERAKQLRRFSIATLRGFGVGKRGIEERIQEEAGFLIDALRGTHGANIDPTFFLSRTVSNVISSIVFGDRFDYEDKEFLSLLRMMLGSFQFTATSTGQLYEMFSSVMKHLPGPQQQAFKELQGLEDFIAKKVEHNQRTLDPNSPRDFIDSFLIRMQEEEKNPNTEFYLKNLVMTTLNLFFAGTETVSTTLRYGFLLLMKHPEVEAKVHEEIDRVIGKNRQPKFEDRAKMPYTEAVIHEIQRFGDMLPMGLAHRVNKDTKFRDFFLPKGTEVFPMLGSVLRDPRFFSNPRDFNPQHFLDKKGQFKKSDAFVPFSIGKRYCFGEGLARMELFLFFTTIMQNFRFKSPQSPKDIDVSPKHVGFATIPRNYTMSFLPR

rat liver P450 1A2 = target: T3, rat liver P450 1A2 (Rattus norvegicus, UniProt P04799); assay type: binding
T3 sequence (P04799 1-513): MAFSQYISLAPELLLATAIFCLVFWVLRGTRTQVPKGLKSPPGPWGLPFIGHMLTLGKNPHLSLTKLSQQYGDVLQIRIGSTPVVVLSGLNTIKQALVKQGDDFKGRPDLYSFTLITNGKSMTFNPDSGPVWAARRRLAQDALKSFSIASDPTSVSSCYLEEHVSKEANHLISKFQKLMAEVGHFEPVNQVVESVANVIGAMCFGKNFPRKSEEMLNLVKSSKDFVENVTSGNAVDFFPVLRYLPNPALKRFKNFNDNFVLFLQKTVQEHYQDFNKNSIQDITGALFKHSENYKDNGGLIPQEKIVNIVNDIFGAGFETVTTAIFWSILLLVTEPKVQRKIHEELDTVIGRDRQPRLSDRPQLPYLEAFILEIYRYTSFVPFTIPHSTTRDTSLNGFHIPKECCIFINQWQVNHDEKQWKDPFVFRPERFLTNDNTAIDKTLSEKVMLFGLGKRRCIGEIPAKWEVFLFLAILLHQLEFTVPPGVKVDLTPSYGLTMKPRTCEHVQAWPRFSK

P450 2A13 [2] = target: T2, P450 2A13; assay: Spectral binding titration with purified recombinant P450 2A13; settings: for ΔAmax/Ks / ΔAmax: Type I binding; for ΔAmax: means ± SE
P450 2A13 [3] = assay: as above; settings: Ks P450 2A6 / Ks P450 2A13
rabbit liver P450 1A2 = target: T4, rabbit liver P450 1A2 (Oryctolagus cuniculus, UniProt P00187); assay type: binding
T4 sequence (P00187 1-516): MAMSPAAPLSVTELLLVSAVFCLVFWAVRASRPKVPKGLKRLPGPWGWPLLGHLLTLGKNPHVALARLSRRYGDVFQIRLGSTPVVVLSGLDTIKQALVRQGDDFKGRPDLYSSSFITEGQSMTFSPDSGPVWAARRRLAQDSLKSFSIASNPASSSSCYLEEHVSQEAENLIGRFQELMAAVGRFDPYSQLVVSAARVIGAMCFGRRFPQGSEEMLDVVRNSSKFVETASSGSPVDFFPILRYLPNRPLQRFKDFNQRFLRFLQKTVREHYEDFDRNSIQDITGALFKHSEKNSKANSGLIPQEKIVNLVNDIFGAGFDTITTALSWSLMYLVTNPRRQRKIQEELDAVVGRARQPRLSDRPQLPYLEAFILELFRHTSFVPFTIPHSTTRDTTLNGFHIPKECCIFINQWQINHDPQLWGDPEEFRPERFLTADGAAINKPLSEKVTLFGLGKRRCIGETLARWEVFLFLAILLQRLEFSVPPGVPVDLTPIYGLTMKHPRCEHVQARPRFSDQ

P450 2A6 = target: T5, P450 2A6 (Homo sapiens, UniProt P11509); assay type: biochemical
T5 sequence (P11509 1-494): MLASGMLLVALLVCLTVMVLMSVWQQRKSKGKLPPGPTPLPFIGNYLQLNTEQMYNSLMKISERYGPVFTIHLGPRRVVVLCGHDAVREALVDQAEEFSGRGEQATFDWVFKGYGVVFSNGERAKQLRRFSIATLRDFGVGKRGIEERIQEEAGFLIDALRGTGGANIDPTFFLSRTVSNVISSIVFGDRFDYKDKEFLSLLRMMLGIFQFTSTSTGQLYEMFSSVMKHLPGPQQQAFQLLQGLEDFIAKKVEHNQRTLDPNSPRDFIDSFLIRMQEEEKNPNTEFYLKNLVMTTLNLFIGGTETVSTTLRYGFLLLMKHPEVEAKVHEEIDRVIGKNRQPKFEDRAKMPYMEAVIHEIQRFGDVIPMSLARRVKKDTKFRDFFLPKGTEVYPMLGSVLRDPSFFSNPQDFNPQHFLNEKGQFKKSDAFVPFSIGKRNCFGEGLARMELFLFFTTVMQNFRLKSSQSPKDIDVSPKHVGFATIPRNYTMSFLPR

N#C[Se]Cc1ccccc1 [BSC, benzyl selenocyanate]
IC50 (P450 1A2): 1.3 ± 0.22 µM
IC50 (P450 2A13 [1]): 1.2 ± 0.19 µM
Kd (rat liver P450 1A2): 16 ± 2.4 µM
Kd (P450 2A13 [2]): 0.2 ± 0.021 µM
ΔAmax/Ks (P450 2A13 [2]; 1 µM P450): 470.00 × 10^−3
ΔAmax (P450 2A13 [2]; 1 µM P450): 94 ± 1.5 × 10^−3
type of binding spectra (P450 2A13 [2]; difference spectra): Type I
Ks of P450 2A13 lower than with P450 2A6 (P450 2A13 [3]): 10 fold
Kd (rabbit liver P450 1A2): 90 ± 29 µM
effect of preincubation on inhibition potency of coumarin 7-hydroxylation (P450 2A6): did not change the inhibition potencies

N#C[Se]Cc1cccc(C[Se]C#N)c1 [m-XSC, 1,3-phenylenebis(methylene)selenocyanate]
IC50 (P450 2A13 [1]): 0.22 ± 0.031 µM
Kd (P450 2A13 [2]): 0.2 ± 0.015 µM
ΔAmax/Ks (P450 2A13 [2]; 1 µM P450): 395.00 × 10^−3
ΔAmax (P450 2A13 [2]; 1 µM P450): 79 ± 0.91 × 10^−3
ΔAmax/Ks (P450 2A13 [2]; as printed in text without ×10^−3): 0.40
Ks of P450 2A13 lower than with P450 2A6 (P450 2A13 [3]): 28 fold
effect of preincubation on inhibition potency of coumarin 7-hydroxylation (P450 2A6; preincubation 15 min with NADPH vs without): did not change the inhibition potencies
coumarin 7-hydroxylation, % of control (P450 2A6; with preincubation 15 min with NADPH, 1.0 µM coumarin, BSC 4.3 µM, m-XSC 0.68 µM): 48 % of control
coumarin 7-hydroxylation, % of control (P450 2A6; without preincubation, 1.0 µM coumarin, BSC 4.3 µM, m-XSC 0.68 µM): 48 % of control
coumarin 7-hydroxylation (P450 2A6; without preincubation, 1.0 µM coumarin, BSC 4.3 µM, m-XSC 0.68 µM, control 3.26): 1.56 nmol/min/nmol P450
